Test results taken from article PMC3760508 (Journal of medicinal chemistry, 2009).

Columns and labels:
cruzain = cruzain (Trypanosoma cruzi, UniProt P25779); test: biochemical; format: biochemical; conditions: for change of cruzain IC50 between low and high detergent concentration: 0.001% vs 0.01% Triton X-100; for cruzain inhibition (in words): Figure 1 analogs
particle = format: physicochemical; conditions: for particles? lowest evaluated concentration at which particle formation was observed: flow cytometry, in some cases confirmed by DLS
AmpC β-lactamase = AmpC β-lactamase (Escherichia coli, UniProt P00811); test: AmpC β-lactamase detergent-sensitive inhibition; format: biochemical; conditions: reversal by 0.01% Triton
[1] = high Triton (0.01% Triton X-100), 23 at 50 μM
[2] = low Triton (0.001% Triton X-100), 23 at 5 μM, 1 at 25 μM

cruzain, sequence (P25779 123-467): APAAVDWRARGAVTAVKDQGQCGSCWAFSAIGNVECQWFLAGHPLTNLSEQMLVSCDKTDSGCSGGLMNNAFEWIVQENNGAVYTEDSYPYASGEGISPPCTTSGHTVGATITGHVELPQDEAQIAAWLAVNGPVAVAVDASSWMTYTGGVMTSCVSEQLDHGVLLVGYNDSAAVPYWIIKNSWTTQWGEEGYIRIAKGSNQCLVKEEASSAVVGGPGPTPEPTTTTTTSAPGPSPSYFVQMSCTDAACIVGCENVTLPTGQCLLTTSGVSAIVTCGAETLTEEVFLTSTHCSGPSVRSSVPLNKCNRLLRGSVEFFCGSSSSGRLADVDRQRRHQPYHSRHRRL
AmpC β-lactamase, sequence (P00811 20-377): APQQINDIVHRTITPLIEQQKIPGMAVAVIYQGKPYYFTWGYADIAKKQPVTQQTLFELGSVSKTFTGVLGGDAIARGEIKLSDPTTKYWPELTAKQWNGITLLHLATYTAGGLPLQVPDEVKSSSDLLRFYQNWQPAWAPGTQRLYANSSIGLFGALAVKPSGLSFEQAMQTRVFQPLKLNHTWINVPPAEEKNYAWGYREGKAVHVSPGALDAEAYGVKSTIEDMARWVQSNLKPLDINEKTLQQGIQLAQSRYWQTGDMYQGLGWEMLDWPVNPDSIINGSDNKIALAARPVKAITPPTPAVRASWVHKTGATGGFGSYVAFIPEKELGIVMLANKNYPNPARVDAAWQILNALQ

For `Nc1ncccc1C(=O)OCC(=O)NC1CCCCCC1` [Compound 2], the “change of cruzain IC50 between low and high detergent concentration” value (from here on “change”) (cruzain) was “essentially unaltered” and the “mode of cruzain inhibition” value (cruzain; [1]) was “competitive inhibitors”.

With `Nc1ccccc1-c1nnc(C(=O)Nc2ccc3oc4c(c3c2)CCCC4)o1` [Compound 12] the “formation of colloidal aggregates (particles)” value (particle; DLS and flow cytometry, 0.001% Triton X-100, relevant inhibitory concentrations) was “the exception” and the “particles? lowest evaluated concentration at which particle formation was observed” value (particle) was greater than 100 µM.

In the case of `CCN1CCC[C@H]1CNC(=O)c1nnc(-c2ccccc2N)o1` [Compound 18], the “particles? lowest evaluated concentration at which particle formation was observed” value (particle) is reported as greater than 200 µM.

In the case of `Nc1ccccc1-c1nnc(C(=O)Nc2cc(-c3cccs3)[nH]n2)o1` [Compound 23], the IC50 (cruzain) is reported as 82.4 µM, the “mode of cruzain inhibition” value (cruzain; [1]) is reported as “competitive” and the “mode of cruzain inhibition” value (cruzain; [2]) is reported as “non-competitive”.

With `O=C(COC(=O)c1ccccn1)Nc1cc(Cl)ccc1Cl` [Compound 4] the “cruzain inhibition (in words)” value (cruzain) was “essentially inactive”.

In the case of `Cc1cccc(C(=O)OCC(=O)Nc2cc(Cl)ccc2Cl)c1` [Compound 5], the “cruzain inhibition (in words)” value (cruzain) is reported as “essentially inactive”.

For `Nc1ncccc1C(=O)OCC(=O)Nc1cc(Cl)ccc1Cl` [Compound 1], the “change” value (cruzain) was ~ 3 fold, the “dependence of cruzain inhibition on incubation time” value (cruzain; 0.01% Triton X-100) was “independent of incubation time” and the “mode of cruzain inhibition” value (cruzain; [1]) was “competitive inhibition”. For the same compound, the “mode of cruzain inhibition” value (cruzain; [2]) was “non-competitive”, the “detergent-reversible inhibition of AmpC β-lactamase” value (AmpC β-lactamase) was “found to inhibit AmpC, and its inhibition was reversed by 0.01% Triton” and the “particles? lowest evaluated concentration at which particle formation was observed” value (particle) was 25 µM.

For `CCC(NC(=O)COC(=O)c1cccnc1N)c1ccc(Br)cc1` (stereo not shown) [Compound 3], the “change” value (cruzain) was “essentially unaltered” and the “mode of cruzain inhibition” value (cruzain; [1]) was “competitive inhibitors”.

With `Cc1cc(NC(=O)c2nnc(-c3ccccc3N)o2)n[nH]1` [Compound 25] the “detergent-reversible inhibition of AmpC β-lactamase” value (AmpC β-lactamase) was “the exception”.
